The values below are quoted from earlier work in patent publication US12377118B2, “Nanoparticle constructs for systemic co-delivery of anti-tumor agents” (CASE WESTERN RESERVE UNIVERSITY, priority 2019, dated 2025).

Molecules are shown by their SMILES.

The subject of this data set is 4T1 orthotopic mammary tumor. As to conditions: i.t.

As for `Nc1nc2c(ncn2[C@@H]2O[C@@H]3COP(=O)(O)O[C@H]4[C@@H](O)[C@H](n5cnc6c(=O)[nH]c(N)nc65)O[C@@H]4COP(=O)(O)O[C@H]3[C@H]2O)c(=O)[nH]1` [free cdGMP, cyclic diguanylate monophosphate], the “dose needed to regress early 4T1 primary tumors” value was “up to 50 μg”.
